The results in this text go back to patent US8471005B2 (Cephalon, Inc., priority 2008, dated 2013).

Read-outs that look alike come from different tables or passages of the source.

This assay has as its target T1, ALK (Homo sapiens, UniProt Q9UM73).
T1 construct: host or cells: baculovirus expression system
Kind of assay: ALK Kinase Assay (ELISA/TRF, PLC-γ substrate). Format: biochemical. The following applies: read-out: ALK Potency. On the procedure: Briefly, each 96-well plate was coated with […] of 10 μg/mL substrate (phospholipase C-γ) in Tris-buffered saline (TBS). […] The reaction was initiated by adding enzyme (30 ng/ml ALK) and was allowed to proceed at 37° C. for 15 minutes. Detection of the phosphorylated product was performed by adding 100 μl/well of Eu—N1 labeled PT66 antibody (Perkin Elmer # AD0041).
Data analysis was performed using ActivityBase (IDBS, Guilford, UK). IC50 values were calculated by plotting percent inhibition versus log10 of the concentration of compound and fitting to the nonlinear regression sigmoidal dose-response (variable slope) equation in XLFit (IDBS, Guilford, UK).
(In an ELISA, binding on a coated surface is turned into a signal by an enzyme label.)

Where [1] appears, read: ALK kinase inhibition, 1 μM ATP.

T1 sequence (Q9UM73 19-1620): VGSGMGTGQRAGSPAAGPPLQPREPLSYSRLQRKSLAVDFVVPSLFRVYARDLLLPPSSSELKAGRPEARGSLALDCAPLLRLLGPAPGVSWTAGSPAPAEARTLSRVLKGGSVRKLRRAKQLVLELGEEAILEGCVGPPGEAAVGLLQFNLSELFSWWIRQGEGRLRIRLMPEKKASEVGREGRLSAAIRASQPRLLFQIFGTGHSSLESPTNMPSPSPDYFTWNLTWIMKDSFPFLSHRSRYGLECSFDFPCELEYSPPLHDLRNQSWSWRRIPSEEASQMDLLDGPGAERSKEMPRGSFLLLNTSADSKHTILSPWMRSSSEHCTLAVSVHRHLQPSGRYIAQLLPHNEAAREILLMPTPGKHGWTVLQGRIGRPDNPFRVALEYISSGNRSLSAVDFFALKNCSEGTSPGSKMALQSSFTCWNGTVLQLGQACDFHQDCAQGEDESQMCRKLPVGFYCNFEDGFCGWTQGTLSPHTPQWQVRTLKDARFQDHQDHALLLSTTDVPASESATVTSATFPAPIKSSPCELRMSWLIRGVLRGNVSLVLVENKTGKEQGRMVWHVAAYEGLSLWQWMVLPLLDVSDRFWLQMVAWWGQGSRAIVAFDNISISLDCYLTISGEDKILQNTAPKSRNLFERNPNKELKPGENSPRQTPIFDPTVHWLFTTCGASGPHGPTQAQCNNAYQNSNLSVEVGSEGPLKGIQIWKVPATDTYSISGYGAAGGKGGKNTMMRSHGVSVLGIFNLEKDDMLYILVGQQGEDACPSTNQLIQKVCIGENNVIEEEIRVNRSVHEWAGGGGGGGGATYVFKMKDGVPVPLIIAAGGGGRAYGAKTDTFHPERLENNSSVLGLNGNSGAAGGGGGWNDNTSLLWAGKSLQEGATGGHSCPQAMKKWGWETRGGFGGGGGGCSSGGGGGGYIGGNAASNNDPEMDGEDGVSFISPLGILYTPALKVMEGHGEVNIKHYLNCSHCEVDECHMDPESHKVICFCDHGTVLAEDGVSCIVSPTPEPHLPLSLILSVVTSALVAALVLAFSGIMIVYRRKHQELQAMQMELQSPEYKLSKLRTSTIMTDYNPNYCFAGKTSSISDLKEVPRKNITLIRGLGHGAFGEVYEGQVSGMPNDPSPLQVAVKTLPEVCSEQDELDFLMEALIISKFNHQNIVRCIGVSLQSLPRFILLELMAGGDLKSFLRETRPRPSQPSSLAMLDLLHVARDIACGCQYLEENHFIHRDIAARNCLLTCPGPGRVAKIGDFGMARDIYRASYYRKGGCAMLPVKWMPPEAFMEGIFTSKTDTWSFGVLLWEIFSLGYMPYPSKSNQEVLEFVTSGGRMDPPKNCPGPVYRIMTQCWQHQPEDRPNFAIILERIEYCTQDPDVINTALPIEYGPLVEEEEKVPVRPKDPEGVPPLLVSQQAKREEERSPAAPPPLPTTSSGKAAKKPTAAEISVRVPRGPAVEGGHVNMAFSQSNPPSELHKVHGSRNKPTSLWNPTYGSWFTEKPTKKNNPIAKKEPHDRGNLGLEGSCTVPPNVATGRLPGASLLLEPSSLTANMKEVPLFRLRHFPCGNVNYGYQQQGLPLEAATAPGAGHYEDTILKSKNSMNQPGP

As for `COc1ccccc1-c1ccc2cnc(Nc3ccc(N4CCN(C)CC4)cc3)nn12` [Example 20, [7-(2-Methoxy-phenyl)-pyrrolo[2,1-f][1,2,4]triazin-2-yl]-[4-(4-methyl-piperazin-1-1)-phenyl]-amine], the IC50 (ALK Kinase Inhibition) is less than 100 nM.

With `CN1CCN(c2ccc(Nc3ncc4ccc(-c5cccc(S(=O)(=O)NC(C)(C)C)c5)n4n3)cc2)CC1` [Example 23, N-tert-Butyl-3-{2-[4-(4-methyl-piperazin-1-yl)-phenylamino]-pyrrolo[2,1-f][1,2,4]triazin-7-yl}-benzenesulfonamide], the IC50 (ALK Kinase Inhibition) was less than 100 nM.

`COc1ccc(-c2ccc3cnc(Nc4ccc(N5CCN(C)CC5)cc4)nn23)cn1` [Example 81, [7-(6-Methoxy-pyridin-3-yl)-pyrrolo[2,1-f][1,2,4]triazin-2-yl]-[4-(4-methyl-piperazin-1-yl)-phenyl]-amine]: the IC50 (ALK Kinase Inhibition) is 100 to 1000 nM.

Turning to `COc1ccccc1-c1ccc2cnc(Nc3ccc(N4CCN(C)CC4)c(F)c3)nn12` [Example 90, [3-Fluoro-4-(4-methyl-piperazin-1-yl)-phenyl]-[7-(2-methoxy-phenyl)-pyrrolo[2,1-f][1,2,4]triazin-2-yl]-amine], the IC50 (ALK Kinase Inhibition) is less than 100 nM.

As for `CN1CCN(c2ccc(Nc3ncc4ccc(-c5ccccc5N(C)S(C)(=O)=O)n4n3)c(Cl)c2)CC1` [Example 507, N-(2-{2-[2-Chloro-4-(4-methyl-piperazin-1-yl)-phenylamino]-pyrrolo[2,1-f][1,2,4]triazin-7-yl}-phenyl)-N-methyl-methanesulfonamide], the IC50 under setting [1] was less than 100 nM.

Take `COc1cc(N2CCC(N3CCN(C(C)=O)CC3)CC2)ccc1Nc1ncc2ccc(-c3ccccc3OC)n2n1` [Example 536, 1-[4-(1-{3-Methoxy-4-[7-(2-methoxy-phenyl)-pyrrolo[2,1-f][1,2,4]triazin-2-ylamino]-phenyl}-piperidin-4-yl)-piperazin-1-yl]-ethanone]: under setting [1], the IC50 was less than 100 nM.

Take `COc1cc(N2CCC(N3CCNCC3)CC2)ccc1Nc1ncc2ccc(-c3ccccc3OC)n2n1` [Example 537, [7-(2-Methoxy-phenyl)-pyrrolo[2,1-f][1,2,4]triazin-2-yl]-[2-methoxy-4-(4-piperazin-1-yl-piperidin-1-yl)-phenyl]-amine]: under setting [1], the IC50 is less than 100 nM.

`CS(=O)(=O)N1Cc2cccc(-c3ccc4cnc(Nc5ccc(C6CCN(CC(N)=O)CC6)cc5)nn34)c2C1` [Example 579, 2-(4-{4-[7-(2-Methanesulfonyl-2,3-dihydro-1H-isoindol-4-yl)-pyrrolo[2,1-f][1,2,4]triazin-2-ylamino]-phenyl}-piperidin-1-yl)-acetamide]: under setting [1], the IC50 is 1000 to 10000 nM.

For `CN1CCN(c2ccc(Nc3ncc4ccc(-c5ccccc5N(C)S(C)(=O)=O)n4n3)cc2)CC1` [Example 627, N-Methyl-N-(2-{2-[4-(4-methyl-piperazin-1-yl)phenylamino]pyrrolo[2,1-f][1,2,4]triazin-7-yl}phenyl)methanesulfonamide], the IC50 under setting [1] is less than 100 nM.

On to `COc1cc(N2CCN(C[C@@H](O)CO)CC2)ccc1Nc1ncc2ccc(-c3ccccc3OC)n2n1` [Example 758, (R)-3-(4-{3-Methoxy-4-[7-(2-methoxy-phenyl)-pyrrolo[2,1-f][1,2,4]triazin-2-ylamino]-phenyl}-piperazin-1-yl)-propane-1,2-diol], for which the IC50 under setting [1] was less than 100 nM.

Take `COc1cc(N2CCN(C[C@H](O)CO)CC2)ccc1Nc1ncc2ccc(-c3cc(Cl)ccc3OC)n2n1` [Example 759, (S)-3-(4-{4-[7-(5-Chloro-2-methoxy-phenyl)-pyrrolo[2,1-f][1,2,4]triazin-2-ylamino]-3-methoxy-phenyl}-piperazin-1-yl)-propane-1,2-diol]: the IC50 under setting [1] was less than 100 nM.

As for `COc1cc(N2CCN(C[C@H](O)CO)CC2)ccc1Nc1ncc2ccc(-c3ccccc3OC)n2n1` [Example 760, (S)-3-(4-{3-Methoxy-4-[7-(2-methoxy-phenyl)-pyrrolo[2,1-f][1,2,4]triazin-2-ylamino]-phenyl}-piperazin-1-yl)-propane-1,2-diol], the IC50 under setting [1] is less than 100 nM.

With `COc1cc(N2CCCN(C[C@H](O)CO)CC2)ccc1Nc1ncc2ccc(-c3ccccc3OC)n2n1` [Example 767, (S)-3-(4-{3-Methoxy-4-[7-(2-methoxy-phenyl)-pyrrolo[2,1-f][1,2,4]triazin-2-ylamino]-phenyl}-[1,4]diazepan-1-yl)-propane-1,2-diol], the IC50 under setting [1] was less than 100 nM.

Take `COc1ccc(C2CCN(C)CC2)cc1Nc1ncc2ccc(-c3ccccc3OC)n2n1` [Example 770, [2-Methoxy-5-(1-methyl-piperidin-4-yl)-phenyl]-[7-(2-methoxy-phenyl)-pyrrolo[2,1-f][1,2,4]triazin-2-yl]-amine]: the IC50 under setting [1] is less than 100 nM.

In the case of `COc1cc2c(cc1Nc1ncc3ccc(-c4ccccc4OC)n3n1)CCCC(N1CCOCC1)C2` (stereo not shown) [Example 992, (3-Methoxy-6-morpholin-4-yl-6,7,8,9-tetrahydro-5H-benzocyclohepten-2-yl)-[7-(2-methoxy-phenyl)-pyrrolo[2,1-f][1,2,4]triazin-2-yl]-amine], the IC50 under setting [1] was less than 100 nM.

Regarding `Cc1cc2cnc(Nc3ccc(N4CCN(C)CC4)cc3)nn2c1-c1cccc(CCC#N)c1` [Example 1160, 3-(3-{6-Methyl-2-[4-(4-methyl-piperazin-1-yl)-phenylamino]-pyrrolo[2,1-f][1,2,4]triazin-7-yl}-phenyl)-propionitrile], the IC50 under setting [1] is less than 100 nM.

Regarding `Cc1cc(-c2ccccc2N(C)S(C)(=O)=O)n2nc(Nc3ccc(C4CCN(CC(N)=O)CC4)cc3)ncc12` [Example 1261, 2-[4-(4-{7-[2-(Methanesulfonyl-methyl-amino)-phenyl]-5-methyl-pyrrolo[2,1-f][1,2,4]triazin-2-ylamino}-phenyl)-piperidin-1-yl]-acetamide], the IC50 under setting [1] was less than 100 nM.

Take `CN1CCN(c2ccc(Nc3ncc4ccc(-c5cccc(S(=O)(=O)NC(C)(C)C)c5)n4n3)cc2Cl)CC1` [Example 1411, N-tert-Butyl-3-{2-[3-chloro-4-(4-methyl-piperazin-1-yl)-phenylamino]-pyrrolo[2,1-f][1,2,4]triazin-7-yl}-benzenesulfonamide]: the IC50 (ALK Kinase Inhibition) is less than 100 nM.

Turning to `C[C@H](O)CN1CCN(c2ccc(Nc3ncc4ccc(-c5cccc(S(=O)(=O)NC(C)(C)C)c5)n4n3)cc2F)CC1` [Example 1412, N-tert-Butyl-3-(2-{3-fluoro-4-[4-((S)-2-hydroxy-propyl)-piperazin-1-yl]-phenylamino}-pyrrolo[2,1-f][1,2,4]triazin-7-yl)-benzenesulfonamide], the IC50 (ALK Kinase Inhibition) is less than 100 nM.

For `COc1ccccc1-c1ccc2cnc(Nc3ccc(N4CCN(C[C@H](C)O)CC4)c(F)c3)nn12` [Example 1417, (S)-1-(4-{2-Fluoro-4-[7-(2-methoxy-phenyl)-pyrrolo[2,1-f][1,2,4]triazin-2-ylamino]-phenyl}-piperazin-1-yl)-propan-2-ol], where the note is “ALK Kinase Inhibition”, the IC50 is less than 100 nM.

Regarding `COc1ccccc1-c1ccc2cnc(Nc3ccc(N4CCN(C)CC4)c(Cl)c3)nn12` [Example 1418, [3-Chloro-4-(4-methyl-piperazin-1-yl)-phenyl]-[7-(2-methoxy-phenyl)-pyrrolo[2,1-f][1,2,4]triazin-2-yl]-amine], where the note is “ALK Kinase Inhibition”, the IC50 is less than 100 nM.

For `COc1ccc(-c2ccc3cnc(Nc4ccc(N5CCN(C)CC5)c(Cl)c4)nn23)cn1` [Example 1419, [3-Chloro-4-(4-methyl-piperazin-1-yl)-phenyl]-[7-(6-methoxy-pyridin-3-yl)-pyrrolo[2,1-f][1,2,4]triazin-2-yl]-amine], the IC50 (ALK Kinase Inhibition) fell in the range of 100 to 1000 nM.

As to `CN1CCN(c2ccc(Nc3ncc4ccc(-c5ccccc5N(C)S(C)(=O)=O)n4n3)cc2F)CC1` [Example 1421, N-(2-{2-[3-Fluoro-4-(4-methyl-piperazin-1-yl)-phenylamino]-pyrrolo[2,1-f][1,2,4]triazin-7-yl}-phenyl)-N-methyl-methanesulfonamide], the IC50 (ALK Kinase Inhibition) was less than 100 nM.

In the case of `C[C@H](O)CN1CCN(c2ccc(Nc3ncc4ccc(-c5ccccc5N(C)S(C)(=O)=O)n4n3)cc2F)CC1` [Example 1423, N-[2-(2-{3-Fluoro-4-[4-((S)-2-hydroxy-propyl)-piperazin-1-yl]-phenylamino}-pyrrolo[2,1-f][1,2,4]triazin-7-yl)-phenyl]-N-methyl-methanesulfonamide], for the setting “ALK Kinase Inhibition”, the IC50 was less than 100 nM.

With `CN1CCN(c2ccc(Nc3ncc4ccc(-c5ccccc5N(C)S(C)(=O)=O)n4n3)cc2Cl)CC1` [Example 1424, N-(2-{2-[3-Chloro-4-(4-methyl-piperazin-1-yl)-phenylamino]-pyrrolo[2,1-f][1,2,4]triazin-7-yl}-phenyl)-N-methyl-methanesulfonamide], for the setting “ALK Kinase Inhibition”, the IC50 was less than 100 nM.

Regarding `COc1cc(N2CCCC(N3CCN(CCO)CC3)C2)ccc1Nc1ncc2ccc(-c3ccccc3OC)n2n1` (stereo not shown) [Example 1443, 2-[4-(1-{3-Methoxy-4-[7-(2-methoxy-phenyl)-pyrrolo[2,1-f][1,2,4]triazin-2-ylamino]-phenyl}-piperidin-3-yl)-piperazin-1-yl]-ethanol], the IC50 (ALK Kinase Inhibition) was less than 100 nM.

For the compound `COc1cc(N2CCC(N3CCOCC3)CC2)ccc1Nc1ncc2ccc(-c3cccc(NS(C)(=O)=O)c3)n2n1` [Example 1446, N-(3-{2-[2-Methoxy-4-(4-morpholin-4-yl-piperidin-1-yl)-phenylamino]-pyrrolo[2,1-f][1,2,4]triazin-7-yl}-phenyl)-methanesulfonamide], the IC50 (ALK Kinase Inhibition) is less than 100 nM.

As to `CCOc1ccccc1-c1ccc2cnc(Nc3ccc(N4CCC(N5CCOCC5)CC4)cc3OC)nn12` [Example 1447, [7-(2-Ethoxy-phenyl)-pyrrolo[2,1-f][1,2,4]triazin-2-yl]-[2-methoxy-4-(4-morpholin-4-yl-piperidin-1-yl)-phenyl]-amine], the IC50 (ALK Kinase Inhibition) was less than 100 nM.
